Experimental findings from patent publication US20240252488A1 (KOREA RESEARCH INSTITUTE OF CHEMICAL TECHNOLOGY, priority 2020, published 2024) are described below.

The target in experiment [1] is T1, MLKL (Homo sapiens, UniProt Q8NB16).
T1 sequence (Q8NB16 1-471): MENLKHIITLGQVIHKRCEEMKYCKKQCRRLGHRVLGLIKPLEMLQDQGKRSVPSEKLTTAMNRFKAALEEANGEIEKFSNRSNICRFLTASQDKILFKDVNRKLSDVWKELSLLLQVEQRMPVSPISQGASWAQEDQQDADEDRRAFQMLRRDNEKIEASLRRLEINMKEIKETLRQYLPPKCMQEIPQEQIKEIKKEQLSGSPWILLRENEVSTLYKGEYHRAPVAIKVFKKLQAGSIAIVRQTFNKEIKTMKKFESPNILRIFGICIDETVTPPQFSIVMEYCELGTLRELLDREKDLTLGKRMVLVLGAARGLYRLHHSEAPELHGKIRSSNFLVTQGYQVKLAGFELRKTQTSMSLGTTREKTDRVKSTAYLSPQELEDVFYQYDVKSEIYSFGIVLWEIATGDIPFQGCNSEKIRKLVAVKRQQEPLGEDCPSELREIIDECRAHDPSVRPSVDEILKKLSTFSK
As to the kind of experiment: MLKL degradation assay in HepG2 cell line (western blot). The format is cell-based. On the set-up: endogenous in cells; host or cells: HepG2 or HaCaT. Conditions: cell line not given; for Degradation assay (Degradation %) 1 μM: compound 1 μM; for Degradation assay (Degradation %) 10 μM: compound 10 μM. In short, it runs like this: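 Cells seeded, next day medium swapped for compound-containing medium (final 1 or 10 μM) and incubated 20-24 h at 37 °C. Lysates in RIPA with protease/phosphatase inhibitors were protein-matched by BCA, run on SDS-PAGE and immunoblotted for MLKL.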

Experiment [2] concerns FADD−/− Jurkat cells. As to the kind of experiment: Necroptosis inhibition assay, TNF-α-induced necroptosis (CellTiter-Glo 2.0). The format is cell-based, human. Conditions: TNF-α 15 ng/mL; for Necroptosis inhibition assay (Rescue %) 1 μM: compound 1 μM; for Necroptosis inhibition assay (Rescue %) 10 μM: compound 10 μM. In short, it runs like this: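 Luminescent ATP measurement gave viability, from which cytotoxicity and necroptosis inhibition rate were derived. Before that, cells (5.0×10^5 cells/mL) saw compound at 0.1, 1 or 10 μM final for 30 minutes at room temperature, then TNF-α (15 ng/mL final) for 20 to 24 hours at 37° C.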

Experiment [3] addresses T1, MLKL. Description: Measurement of binding affinity with MLKL receptor (competitive binding assay, Kd). Also noted: made in house; host or cells: HEK 293 cell line (T7 phage in E. coli BL21-derived host is also described). In short, it runs like this:
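Competitive displacement of MLKL, expressed in HEK 293 cells and DNA-tagged for qPCR, from immobilized ligand on biotin-blocked beads. Compounds were added from 111× DMSO stocks (final DMSO 0.9%). Kinase left in the eluates was quantified by qPCR to give Kd.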

`Nc1ncc(-c2cnn(C3CCN(CCc4cn(C5CCN(C(=O)CNc6ccc7c(c6)C(=O)N(C6CCC(=O)NC6=O)C7=O)CC5)nn4)CC3)c2)nc1C(=O)O[C@@H](C(=O)Nc1ccc(F)cc1)c1ccccc1` (stereo partly drawn) [TDH-452, (R)-2-((4-fluorophenyl)amino)-2-oxo-1-phenylethyl 3-amino-6-(1-(1-(2-(1-(1-((2-(2,6-dioxopiperidin-3-yl)-1,3-dioxoisoindolin-5-yl)glycyl)piperidin-4-yl)-1H-1,2,3-triazol-4-yl)ethyl)piperidin-4-yl)-1H-pyrazol-4-yl)pyrazine-2-carboxylate]: in experiment [1], the “Degradation assay (Degradation %) 1 μM” value is reported as 61.94% and the “Degradation assay (Degradation %) 10 μM” value is 52.12%. Also, in experiment [2] (FADD−/− Jurkat cells), the “Necroptosis inhibition assay (Rescue %) 1 μM” value was 38.27% and the “Necroptosis inhibition assay (Rescue %) 10 μM” value is reported as 26.02%. Binding in experiment [3] was characterised by a dissociation constant (Kd) of 1.8 nM.
As for `Nc1ncc(-c2cnn([C@@H]3CCN(CCOCCOCCNC(=O)COc4ccc5c(c4)C(=O)N(C4CCC(=O)NC4=O)C5=O)C3)c2)nc1C(=O)OC(C(=O)Nc1ccc(F)cc1)c1ccccc1` (stereo partly drawn) [TDH-270, 2-((4-fluorophenyl)amino)-2-oxo-1-phenylethyl 3-amino-6-(1-((3R)-1-(2-(2-(2-(2-((2-(2,6-dioxopiperidin-3-yl)-1,3-dioxoisoindolin-5-yl)oxy)acetamido)ethoxy)ethoxy)ethyl)pyrrolidin-3-yl)-1H-pyrazol-4-yl)pyrazine-2-carboxylate], in experiment [1], the “Degradation assay (Degradation %) 1 μM” value was determined as 19.32% and the “Degradation assay (Degradation %) 10 μM” value is reported as 39.14%. In addition, in experiment [2], the “Necroptosis inhibition assay (Rescue %) 1 μM” value is recorded as 38.56% and the “Necroptosis inhibition assay (Rescue %) 10 μM” value is listed as 99.37%. Moreover, in experiment [3], binding was put at a Kd of 6.1 nM.
On to `Nc1ncc(-c2cnn(C3CCN(C(=O)C4CCN(C(=O)C5CCN(c6cccc7c6C(=O)N(C6CCC(=O)NC6=O)C7=O)CC5)CC4)CC3)c2)nc1C(=O)OC(C(=O)Nc1ccc(F)cc1)c1ccccc1` (centres unmarked) [TDH-273, 2-((4-fluorophenyl)amino)-2-oxo-1-phenylethyl 3-amino-6-(1-(1-(1-(1-(2-(2,6-dioxopiperidin-3-yl)-1,3-dioxoisoindolin-4-yl)piperidine-4-carbonyl)piperidine-4-carbonyl)piperidin-4-yl)-1H-pyrazol-4-yl)pyrazine-2-carboxylate], for which, in experiment [1], the “Degradation assay (Degradation %) 1 μM” value is recorded as 77.5% and the “Degradation assay (Degradation %) 10 μM” value was 61.88%. In experiment [2], the “Necroptosis inhibition assay (Rescue %) 1 μM” value worked out at 54.02% and the “Necroptosis inhibition assay (Rescue %) 10 μM” value is given as 34.08%. For the same compound, the dissociation constant (Kd) (commonly the free concentration of one partner at which half of the binding sites on the other are occupied at equilibrium, for simple one-to-one binding) in experiment [3] is 3.5 nM.
`Nc1ncc(-c2cnn(C3CCN(CCCN4CCN(C(=O)C5CCN(C6=CC(=O)N(C7CCC(=O)NC7=O)C6=O)CC5)CC4)CC3)c2)nc1C(=O)O[C@@H](C(=O)Nc1ccc(F)cc1)c1ccccc1` (stereo partly drawn) [TDH-526, (R)-2-((4-fluorophenyl)amino)-2-oxo-1-phenylethyl 3-amino-6-(1-(1-(3-(4-(1-(1-(2,6-dioxopiperidin-3-yl)-2,5-dioxo-2,5-dihydro-1H-pyrrol-3-yl)piperidine-4-carbonyl)piperazin-1-yl)propyl)piperidin-4-yl)-1H-pyrazol-4-yl)pyrazine-2-carboxylate]: in experiment [1], the “Degradation assay (Degradation %) 1 μM” value amounted to 67.25% and the “Degradation assay (Degradation %) 10 μM” value turned out to be 81.42%. Besides, in experiment [2] (FADD−/− Jurkat cells), the “Necroptosis inhibition assay (Rescue %) 1 μM” value is 57.37% and the “Necroptosis inhibition assay (Rescue %) 10 μM” value came out at 22.77%. The same compound yielded a dissociation constant Kd in experiment [3] of 1.2 nM.
On the same counts, the results for `Nc1ncc(-c2cnn(C3CCN(CCC4CCN(CC5CCN(C(=O)Cc6cccc(NC7=CC(=O)N(C8CCC(=O)NC8=O)C7=O)c6)CC5)CC4)CC3)c2)nc1C(=O)O[C@@H](C(=O)Nc1ccc(F)cc1)c1ccccc1` (stereo partly drawn) [TDH-510, (R)-2-((4-fluorophenyl)amino)-2-oxo-1-phenylethyl 3-amino-6-(1-(1-(2-(1-((1-(2-(3-((1-(2,6-dioxopiperidin-3-yl)-2,5-dioxo-2,5-dihydro-1H-pyrrol-3-yl)amino)phenyl)acetyl)piperidin-4-yl)methyl)piperidin-4-yl)ethyl)piperidin-4-yl)-1H-pyrazol-4-yl)pyrazine-2-carboxylate] are 79.77%, 84.86%, 28.63%, −91.81% and 0.47 nM.
Regarding `Nc1ncc(-c2cnn(C3CCN(CCOCCNC(=O)COc4cccc5c4C(=O)N(C4CCC(=O)NC4=O)C5=O)CC3)c2)nc1C(=O)O[C@@H](C(=O)Nc1ccc(F)cc1)c1ccccc1` (stereo partly drawn) [TDH-134, (R)-2-((4-fluorophenyl)amino)-2-oxo-1-phenylethyl 3-amino-6-(1-(1-(2-(2-(2-((2-(2,6-dioxopiperidin-3-yl)-1,3-dioxoisoindolin-4-yl)oxy)acetamido)ethoxy)ethyl)piperidin-4-yl)-1H-pyrazol-4-yl)pyrazine-2-carboxylate], in experiment [1], the “Degradation assay (Degradation %) 1 μM” value is on record as 14.36% and the “Degradation assay (Degradation %) 10 μM” value is reported as 54.11%. Further, in experiment [2], the “Necroptosis inhibition assay (Rescue %) 1 μM” value is 50.04% and the “Necroptosis inhibition assay (Rescue %) 10 μM” value amounted to 86.09%. Further, the Kd in experiment [3] is 3 nM.
Turning to `Nc1ncc(-c2cnn(C3CCN(CCC4CCN(C(=O)C5CCN(c6cccc7nnn(C8CCC(=O)NC8=O)c(=O)c67)CC5)CC4)CC3)c2)nc1C(=O)OC(C(=O)Nc1ccc(F)cc1)c1ccccc1` (centres unmarked) [TDH-289, 2-((4-fluorophenyl)amino)-2-oxo-1-phenylethyl 3-amino-6-(1-(1-(2-(1-(1-(3-(2,6-dioxopiperidin-3-yl)-4-oxo-3,4-dihydrobenzo[d][1,2,3]triazin-5-yl)piperidine-4-carbonyl)piperidin-4-yl)ethyl)piperidin-4-yl)-1H-pyrazol-4-yl)pyrazine-2-carboxylate], in experiment [1], the “Degradation assay (Degradation %) 1 μM” value is given as 66.33% and the “Degradation assay (Degradation %) 10 μM” value amounted to 43.03%. In addition, in experiment [2], the “Necroptosis inhibition assay (Rescue %) 1 μM” value amounted to 67.46% and the “Necroptosis inhibition assay (Rescue %) 10 μM” value was determined as 61.24%. Also, the Kd in experiment [3] was 2.2 nM.
For the compound `Nc1ncc(-c2cnn([C@@H]3CCN(CC4CCN(C(=O)CNc5ccc6c(c5)C(=O)N(C5CCC(=O)NC5=O)C6=O)CC4)C3)c2)nc1C(=O)OC(C(=O)Nc1ccc(F)cc1)c1ccccc1` (stereo partly drawn) [TDH-286, 2-((4-fluorophenyl)amino)-2-oxo-1-phenylethyl 3-amino-6-(1-((3R)-1-((1-((2-(2,6-dioxopiperidin-3-yl)-1,3-dioxoisoindolin-5-yl)glycyl)piperidin-4-yl)methyl)pyrrolidin-3-yl)-1H-pyrazol-4-yl)pyrazine-2-carboxylate], in experiment [1], the “Degradation assay (Degradation %) 1 μM” value was determined as 71.83% and the “Degradation assay (Degradation %) 10 μM” value is reported as 71.94%. Besides, in experiment [2], the “Necroptosis inhibition assay (Rescue %) 1 μM” value came to 88.45% and the “Necroptosis inhibition assay (Rescue %) 10 μM” value came to 79.75%. For the same compound, the Kd in experiment [3] worked out at 12 nM.
On the same counts, the results for `Nc1ncc(-c2ccc(N3CCN(CCOCCOCCNC(=O)COc4ccc5c(c4)C(=O)N(C4CCC(=O)NC4=O)C5=O)CC3)nc2)nc1C(=O)OC(C(=O)Nc1ccc(F)cc1)c1ccccc1` (centres unmarked) [TDH-262, 2-((4-fluorophenyl)amino)-2-oxo-1-phenylethyl 3-amino-6-(6-(4-(2-(2-(2-(2-((2-(2,6-dioxopiperidin-3-yl)-1,3-dioxoisoindolin-5-yl)oxy)acetamido)ethoxy)ethoxy)ethyl)piperazin-1-yl)pyridin-3-yl)pyrazine-2-carboxylate] are 58.43%, 75.8%, 22.59%, 4.02% and 65 nM.
As for `Nc1ncc(-c2cnn(C3CCN(C(=O)C4CCN(C(=O)CCc5cccc6c5CN(C5CCC(=O)NC5=O)C6=O)CC4)CC3)c2)nc1C(=O)O[C@@H](C(=O)Nc1ccc(F)cc1)c1ccccc1` (stereo partly drawn) [TDH-388, (R)-2-((4-fluorophenyl)amino)-2-oxo-1-phenylethyl 3-amino-6-(1-(1-(1-(3-(2-(2,6-dioxopiperidin-3-yl)-1-oxoisoindolin-4-yl)propanoyl)piperidine-4-carbonyl)piperidin-4-yl)-1H-pyrazol-4-yl)pyrazine-2-carboxylate], in experiment [1], the “Degradation assay (Degradation %) 1 μM” value came to 68.53% and the “Degradation assay (Degradation %) 10 μM” value amounted to 80.04%. In experiment [2], the “Necroptosis inhibition assay (Rescue %) 1 μM” value was 22.66% and the “Necroptosis inhibition assay (Rescue %) 10 μM” value was 22.49%. The same compound yielded a dissociation constant (Kd) in experiment [3] of 2.3 nM.
